Measured values reported in patent US20100190980A1, “PYRAZINAMIDE COMPOUND” (Taisho Pharmaceutical Co., Ltd, priority 2007, published 2010).
pEC50: −log10 of the molar value.

Key:
[1] = molecular target: T1, human liver GK (Homo sapiens, UniProt P35557); test: GK Activation Test; assay type: biochemical; conditions: 4 mM 14C-labeled glucose; for pEC50: concentration activating GK to 50% of the maximum activation value
T1 construct: GST (Glutathione S-transferase) (N); made in house; host or cells: Escherichia coli
T1 sequence (P35557 1-466 isoform P35557-2): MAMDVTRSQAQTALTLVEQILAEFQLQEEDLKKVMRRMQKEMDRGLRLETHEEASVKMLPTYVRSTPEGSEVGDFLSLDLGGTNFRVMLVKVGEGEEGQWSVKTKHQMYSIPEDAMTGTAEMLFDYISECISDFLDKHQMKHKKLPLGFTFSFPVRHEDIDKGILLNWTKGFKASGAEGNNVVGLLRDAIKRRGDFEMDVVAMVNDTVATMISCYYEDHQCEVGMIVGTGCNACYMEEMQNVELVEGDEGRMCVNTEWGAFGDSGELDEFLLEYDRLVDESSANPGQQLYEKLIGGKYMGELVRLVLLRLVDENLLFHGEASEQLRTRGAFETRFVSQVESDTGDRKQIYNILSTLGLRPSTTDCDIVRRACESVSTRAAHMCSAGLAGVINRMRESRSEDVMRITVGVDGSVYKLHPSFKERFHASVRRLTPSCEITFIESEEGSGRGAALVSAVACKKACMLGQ
Description: A GK activation by a test compound was tested by partially modifying the method of Irwin A. Rose et al. (J. Biol. Chem. 1964 January; 239: 12-7).
The enzyme source used in this assay was human liver GK, which was allowed to express by Escherichia coli as a fusion protein having GST (Glutathione S-transferase) added to the amino terminal and purified by Glutathione Sepharose 4B (Amersham Biosciences).
The test was performed by using flat-bottom 96-well plates (Sumitomo Bakelite Co., Ltd). To each of the wells of plates, a dimethyl sulfoxide (DMSO) solution of a test compound and DMSO serving as a control were added so as to obtain a final DMSO concentration of 1%. Furthermore, 25 mM Hepes-KOH (pH=7.1), 25 mM KCl, 2 mM MgCl2, 2 mM ATP, 4 mM ^14C-labeled glucose (Amersham Pharmacia) and 1 mM DTT (dithiothreitol) (these concentrations were final concentrations) were added. Finally, human liver GK was added so as to obtain 0.24 μg/well. The reaction was initiated and carried out at room temperature.
Twenty minutes later, AG1-X4 resin (BioRad), which was suspended with 25 mM Hepes-KOH (pH=7.1), was added and allowed to bind a reaction product, a labeled glucose-6-phosphate. The whole quantity was transferred to a multi-screen plate (Millipore) and the resin was washed with water. Thereafter, labeled glucose-6-phosphate bound to the resin was eluted with a 0.5 M NaCl solution. The activity of the labeled glucose-6-phosphate eluted was measured and used as an index of GK activity.
Regarding the GK activity of a control group in a well in which DMSO alone was added as 100%, the GK activity activated by the test compound to a maximum was indicated as the maximum activation value (Emax value). Furthermore, the concentration of a test compound required for activating GK activity to 50% of the maximum activation value was indicated as an EC50 value.

[2] = tested on: SD rats; test: Blood Glucose Level-Lowering Effect in SD rats; assay type: in vivo, rat; conditions: oral, 0.5% methyl cellulose group = 100%
Description: The effect of the compound of the present invention to decrease blood glucose level was investigated by use of SD rats.
SD rats were raised by free-feeding. From the caudal vein of 8-week old […], blood was taken and centrifugally separated to obtain the plasma. A blood glucose level of the plasma was measured by glucose CII test Wako. The rats were divided into groups of 6 rats so as to have the same average blood glucose level. In an agent administration group, a compound suspended in a 0.5% aqueous methyl cellulose solution was orally administered to the rats; whereas, in a control group, a 0.5% aqueous methylcellulose solution was orally administered. At 30 minutes, 60 minutes, 120 minutes, 240 minutes, 360 minutes and 480 minutes after the administration, blood was taken from the caudal vein of each rat. The plasma was centrifugally recovered and a blood glucose level was measured by use of glucose CII test Wako. Furthermore, a plasma insulin concentration was measured by an ultrasensitive rat insulin measuring kit (Morinaga Institute of Biological Science, Inc.). The blood glucose levels at individual time points were plotted to obtain a graph showing a change of blood glucose level.
Regarding the blood glucose level of the 0.5% methyl cellulose administration group as 100%, the blood glucose level of SD rats administrated with Compound No. 2 was indicated. In a 3 mg/kg administration group, the blood glucose level was 59% at 1 hour, 71% at 2 hours and 76% at 4 hours. Whereas, in a 10 mg/kg administration group, the blood glucose level was 53% at 1 hour, 68% at 2 hours, and 75% at 4 hours.

Compound | pEC50 [1] | further results
O=C(O)c1ccc(NC(=O)c2nc(Sc3nnc[nH]3)cnc2Sc2ccc(F)cc2)nc1 [Compound No. 35, 6-[({3-[(4-fluorophenyl)sulfanyl]-6-(4H-1,2,4-triazol-3-ylsulfanyl)pyrazin-2-yl}carbonyl)amino]pyridine-3-carboxylic acid] | 7.14 | –
Cn1ccc(NC(=O)c2nc(Sc3nnc[nH]3)cnc2Sc2ccncc2)n1 [Compound No. 24, N-(1-methyl-1H-pyrazol-3-yl)-3-(pyridin-4-ylsulfanyl)-6-(4H-1,2,4-triazol-3-ylsulfanyl)pyrazine-2-carboxamide] | 6.96 | –
Cc1nnc(Sc2cnc(Sc3ccc(S(C)(=O)=O)cc3)c(C(=O)Nc3ccn(C)n3)n2)[nH]1 [Compound No. 52, N-(1-methyl-1H-pyrazol-3-yl)-3-{[4-(methylsulfonyl)phenyl]sulfanyl}-6-[(5-methyl-4H-1,2,4-triazol-3-yl)sulfanyl]pyrazine-2-carboxamide] | 6.89 | Emax ([1]; GK activity of DMSO control = 100%, 2 mM ATP, read-out: Emax (maximum activation value)): 883%
COc1ccc(Sc2ncc(Sc3nnc[nH]3)nc2C(=O)Nc2cnccn2)cc1 [Compound No. 46, 3-[(4-methoxyphenyl)sulfanyl]-N-pyrazin-2-yl-6-(4H-1,2,4-triazol-3-ylsulfanyl)pyrazine-2-carboxamide] | 7.23 | –
O=C(Nc1cnccn1)c1nc(Sc2nnc[nH]2)cnc1Sc1ccc(F)cc1 [Compound No. 29, 3-[(4-fluorophenyl)sulfanyl]-N-(pyrazin-2-yl)-6-(4H-1,2,4-triazol-3-ylsulfanyl)pyrazine-2-carboxamide] | 7.05 | –
O=C(NC1=NCCS1)c1nc(Sc2nnc[nH]2)cnc1Sc1ccc(F)cc1 [Compound No. 25, N-(4,5-dihydro-1,3-thiazol-2-yl)-3-[(4-fluorophenyl)sulfanyl]-6-(4H-1,2,4-triazol-3-ylsulfanyl)pyrazine-2-carboxamide] | 6.44 | –
Cn1ccc(NC(=O)c2nc(Sc3nnc[nH]3)cnc2SC2CCCCC2)n1 [Compound No. 5, 3-(cyclohexylsulfanyl)-N-(1-methyl-1H-pyrazol-3-yl)-6-(4H-1,2,4-triazol-3-ylsulfanyl)pyrazine-2-carboxamide] | 6.77 | –

Further lines, with some results ahead:

pEC50 [1] | Compound | further results
6.98 | Cn1ccc(NC(=O)c2nc(Sc3nnc[nH]3)cnc2Sc2ccc(F)cc2)n1 [Compound No. 2, 3-[(4-fluorophenyl)sulfanyl]-N-(1-methyl-1H-pyrazol-3-yl)-6-(4H-1,2,4-triazol-3-ylsulfanyl)pyrazine-2-carboxamide] | blood glucose level ([2]; 3 mg/kg, at 1 hour): 59%; blood glucose level ([2]; 3 mg/kg, at 2 hours): 71%; blood glucose level ([2]; 3 mg/kg, at 4 hours): 76%; blood glucose level ([2]; 10 mg/kg, at 1 hour): 53%; blood glucose level ([2]; 10 mg/kg, at 2 hours): 68%; blood glucose level ([2]; 10 mg/kg, at 4 hours): 75%
6.40 | COCCn1ccc(NC(=O)c2nc(Sc3nnc(C)[nH]3)cnc2Sc2ccc(F)cc2)n1 [Compound No. 30, 3-[(4-fluorophenyl)sulfanyl]-N-[1-(2-methoxyethyl)-1H-pyrazol-3-yl]-6-[(5-methyl-4H-1,2,4-triazol-3-yl)sulfanyl]pyrazine-2-carboxamide] | –
6.93 | Cc1nnc(Sc2cnc(Sc3ccc(F)cc3)c(C(=O)Nc3ccn(C)n3)n2)[nH]1 [Compound No. 38, 3-[(4-fluorophenyl)sulfanyl]-N-(1-methyl-1H-pyrazol-3-yl)-6-[(5-methyl-4H-1,2,4-triazol-3-yl)sulfanyl]pyrazine-2-carboxamide] | –
6.88 | CSc1ccc(Sc2ncc(Sc3nnc(N)[nH]3)nc2C(=O)Nc2cnccn2)cc1 [Compound No. 51, 6-[(5-amino-4H-1,2,4-triazol-3-yl)sulfanyl]-3-{[4-(methylsulfanyl)phenyl]sulfanyl}-N-pyrazin-2-ylpyrazine-2-carboxamide] | –
6.51 | Cn1ccc(NC(=O)c2nc(Sc3nncs3)cnc2Sc2ccc(F)cc2)n1 [Compound No. 41, 3-[(4-fluorophenyl)sulfanyl]-N-(1-methyl-1H-pyrazol-3-yl)-6-(1,3,4-thiadiazol-2-ylsulfanyl)pyrazine-2-carboxamide] | –
